Data on 15 molecules can be found in patent US12180226B2, “Spirotricycle RIPK1 inhibitors and methods of uses thereof” (Merck Sharp & Dohme LLC, priority 2021, dated 2024).

The experiment deals with RIPK1 (recombinant GST-RIPK1 kinase domain, residues 1-327) (Homo sapiens (Human), UniProt Q13546). The experiment is described as follows: RIPK1-ADP-Glo Enzymatic Assay. It counts as biochemical. The note with it: ADP-Glo; 25 nM GST-RIPK1, 300 μM ATP; assay lower limit ~25 nM; read-out: RIPK1 V0 Ec50. The gist of the method: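 Luminescent ADP-Glo readout of ATP-to-ADP conversion. Conditions: 25 nM enzyme, 300 μM ATP, 3 μM dephospho-MBP, pH 7.3 HEPES buffer with 20 mM MgCl2; 30 min compound pre-incubation, 150 min reaction. EC50 via four-parameter sigmoidal regression; assay floor ~25 nM.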
Background: In ADP-Glo the light output rises with the ADP produced.

The structures appear in SMILES notation. Counter-ions that a name gives are not always drawn.

Usually EC50 stands for the midpoint of the concentration-response curve.

Chain of RIPK1 (recombinant GST-RIPK1 kinase domain, residues 1-327) (Q13546 1-327): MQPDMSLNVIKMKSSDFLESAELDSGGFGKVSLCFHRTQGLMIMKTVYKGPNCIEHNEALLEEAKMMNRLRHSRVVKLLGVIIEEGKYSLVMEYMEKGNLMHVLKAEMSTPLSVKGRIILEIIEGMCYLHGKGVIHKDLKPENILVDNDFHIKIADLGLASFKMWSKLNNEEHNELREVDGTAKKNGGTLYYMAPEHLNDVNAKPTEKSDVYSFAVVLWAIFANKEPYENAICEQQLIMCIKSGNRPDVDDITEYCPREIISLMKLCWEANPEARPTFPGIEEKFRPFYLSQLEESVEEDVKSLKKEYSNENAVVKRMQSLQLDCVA

Take `Cc1cncc(C(=O)N2CCC3(CC2)O[C@@H]2CC[C@@H](c4cc(F)cc(F)c4)N2C3=O)c1` [Example 6.59, (5′S,7a′R)-5'-(3,5-difluorophenyl)-1-(5-methylpyridine-3-carbonyl)tetrahydro-3′H-spiro[piperidine-4,2′-pyrrolo[2,1-b] [1,3]oxazol]-3′-one]: the EC50 is 281 nM.
For the molecule `CC1CN(c2cccc3ncnn23)CCC12O[C@@H]1CC[C@@H](c3cc(F)cc(F)c3)N1C2=O` (stereo partly drawn) [Example 4.265, (5′S,7a′R)-5′-(3,5-difluorophenyl)-3-methyl-1-([1,2,4]triazolo[1,5-a]pyridin-5-yl)tetrahydro-3′H-spiro[piperidine-4,2′-pyrrolo[2,1-b] [1,3]oxazol]-3′-one], the EC50 is 28.4 nM.
`COC(=O)c1cnc(N2CCC3(CC2)O[C@@H]2CC[C@@H](c4ccccc4)N2C3=O)nc1C` [Example 4.189, methyl 4-methyl-2-[(5′S,7a′R)-3′-oxo-5′-phenyltetrahydro-1H,3′H-spiro[piperidine-4,2′-pyrrolo[2,1-b] [1,3]oxazol]-1-yl]pyrimidine-5-carboxylate]: the EC50 amounted to 25.4 nM.
With `O=C(c1ccccc1OC(F)F)N1CCC2(CC1)O[C@@H]1CC[C@@H](c3cc(F)cc(F)c3)N1C2=O` [Example 6.61, (5′S,7a′R)-1-[2-(difluoromethoxy)-benzene-1-carbonyl]-5′-(3,5-difluorophen-yl)tetrahydro-3′H-spiro[piperidine-4,2′-pyrrolo[2,1-b][1,3]-oxazol]-3′-one] the figure was 261 nM; with `O=C1N2[C@@H](CC[C@H]2c2cccc(F)c2)OC12CCN(c1cc(F)ccn1)CC2` [Example 4.126, (5′S,7a′R)-5′-(3-fluorophenyl)-1-(4-fluoropyridin-2-yl)tetrahydro-3′H-spiro[piperidine-4,2′-pyrrolo[2,1-b] [1,3]oxazol]-3′-one], 46.7 nM.
With `Cc1ccc(C)c(C(=O)N2CCC3(CC2)O[C@@H]2CC[C@@H](c4ccccc4)N2C3=O)c1` [Example 6.142, (5′S,7a′R)-1-(2,5-dimethylbenzene-1-carbonyl)-5′-phenyl-tetrahydro-3′H-spiro [piperidine-4,2′-pyrrolo[2,1-b][1,3]oxazol]-3′-one] the figure was 75.1 nM; with `COc1cccc([C@@H]2CC[C@H]3OC4(CCN(c5cc(C#N)ncn5)CC4)C(=O)N32)c1` [Example 20.3, 6-[(5′S,7a′R)-5′-(3-methoxyphenyl)-3′-oxotetrahydro-1H,3′H-spiro[piperidine-4,2′-pyrrolo[2,1-b][1,3]oxazol]-1-yl]pyrimidine-4-carbonitrile], 394 nM; with `Cc1ncc([C@@H]2CC[C@H]3OC4(CCN(c5ccnc6c(F)cnn56)CC4F)C(=O)N32)cc1F` (stereo partly drawn) [Example 4.131, (5′S,7a′R)-3-fluoro-5′-(5-fluoro-6-methylpyridin-3-yl)-1-(3-fluoropyrazolo[1,5-a]pyrimidin-7-yl)tetrahydro-3′H-spiro[piperidine-4,2′-pyrrolo[2,1-b] [1,3]oxazol]-3′-one], 30.6 nM.
Regarding `CCOC(=O)c1nc(N2CCC3(CC2)O[C@@H]2CC[C@@H](c4cc(F)cc(F)c4)N2C3=O)ncc1F` [Example 4.205, ethyl 2-[(5′S,7a′R)-5′-(3,5-difluorophenyl)-3′-oxotetrahydro-1H,3′H-spiro[piperidine-4,2′-pyrrolo[2,1-b] [1,3]oxazol]-1-yl]-5-fluoropyrimidine-4-carboxylate], the concentration for a half-maximal effect (EC50) is 63.3 nM.
Consider `CC(=O)c1ccc(N2CCC3(CC2)O[C@@H]2CC[C@@H](c4ccccc4)N2C3=O)n2ncnc12` [Example 4.270, (5′S,7a′R)-1-(8-acetyl[1,2,4]triazolo[1,5-a]pyridin-5-yl)-5′-phenyltetrahydro-3′H-spiro[piperidine-4,2′-pyrrolo[2,1-b] [1,3]oxazol]-3′-one], for which the EC50 was < 25 nM.
With `O=C1N2[C@@H](CC[C@H]2c2cc(F)cc(F)c2)OC12CCN(c1ccnn3ccnc13)CC2` [Example 13.3, (5′S,7a′R)-5′-(3,5-difluorophenyl)-1-(imidazo[1,2-b]pyridazin-8-yl)tetrahydro-3′H-spiro[piperidine-4,2′-pyrrolo[2,1-b]oxazol]-3′-one, TFA salt] the figure was < 25 nM; with `O=C(c1cccc2ccnn12)N1CCC2(CC1)O[C@@H]1CC[C@@H](c3cc(F)cc(F)c3)N1C2=O` [Example 6.27, (5′S,7a′R)-5′-(3,5-difluorophenyl)-1-(pyrazolo[1,5-a]pyridine-7-carbonyl) tetrahydro-3′H-spiro [piperidine-4,2′-pyrrolo[2,1-b][1,3]oxazol]-3′-one], 47.6 nM.
Regarding `Cc1ccc([C@@H]2CC[C@H]3OC4(CCN(C(=O)c5ccccc5)CC4)C(=O)N32)cc1` [Example 17.3, (5′S,7a′R)-1-benzoyl-5′-(p-tolyl)tetrahydro-3′H-spiro[piperidine-4,2′-pyrrolo[2,1-b]oxazol]-3′-one], the EC50 is < 25 nM.
`CC(C)(C)OC(=O)c1ccc(N2CCC3(CC2)O[C@@H]2CC[C@@H](c4ccccc4)N2C3=O)nc1` [Example 4.198, tert-butyl 6-[(5′S,7a′R)-3′-oxo-5′-phenyltetrahydro-1H,3′H-spiro[piperidine-4,2′-pyrrolo[2,1-b] [1,3]oxazol]-1-yl]pyridine-3-carboxylate]: the EC50 turned out to be 249 nM.
With `N#Cc1ccnc(N2CCC3(CC2)O[C@@H]2CC[C@@H](c4cc(F)cc(F)c4)N2C3=O)c1` [Example 4.8, 2-[(5′S,7a′R)-5′-(3,5-difluorophenyl)-3′-oxotetrahydro-1H,3′H-spiro[piperidine-4,2′-pyrrolo[2,1-b] [1,3]oxazol]-1-yl]pyridine-4-carbonitrile] the figure was < 25 nM.
